Experimental data reported in the supplement of paper PMC10307832.

What was measured:
Assay in all cases: relative viability (nuclei count vs DMSO), 5 days (fraction); higher = more cells survive
Entinostat + Trametinib = compound: Nc1ccccc1NC(=O)c1ccc(CNC(=O)OCc2cccnc2)cc1 [Entinostat] + CC(=O)Nc1cccc(-n2c(=O)n(C3CC3)c(=O)c3c(Nc4ccc(I)cc4F)n(C)c(=O)c(C)c32)c1 [Trametinib] (partner 0.02 µM)
Outline: (§1)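 Each reported value is a median over duplicate plates. It expresses relative viability: treated-well nuclei count divided by vehicle-well nuclei count. Lung cancer cell lines in 1536-well plates were dosed by pin tool a day after seeding, alone with one drug or with a fixed anchor-drug dose plus five library-drug doses (not always all listed) in √10 steps, and nuclei were counted after 5 days.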

[1] = compound: C1COCCN1C2=NC(=NC3=C2OC4=C3C=CC=N4)C5=CC(=CC=C5)NC(=O)C6=CN=C(C=C6)N + O=C(c1cc(Cc2n[nH]c(=O)c3ccccc23)ccc1F)N1CCN(C(=O)C2CC2)CC1 [Olaparib] (partner 8 µM)
Outline: as §1

SGI-1776 + Pictilisib = compound: CN1CCC(CNc2ccc3ncc(-c4cccc(OC(F)(F)F)c4)n3n2)CC1 [SGI-1776] + CS(=O)(=O)N1CCN(Cc2cc3nc(-c4cccc5[nH]ncc45)nc(N4CCOCC4)c3s2)CC1 [Pictilisib] (partner 1 µM)
Outline: as §1

SGI-1776 + Pemetrexed = compound: CN1CCC(CNc2ccc3ncc(-c4cccc(OC(F)(F)F)c4)n3n2)CC1 [SGI-1776] + Nc1nc2[nH]cc(CCc3ccc(C(=O)N[C@@H](CCC(=O)O)C(=O)O)cc3)c2c(=O)[nH]1 [Pemetrexed] (partner 0.2 µM)
Outline: as §1

Row | Cell Line | relative viability (Entinostat + Trametinib; first compound 0.02 µM) | relative viability (Entinostat + Trametinib; first compound 0.06325 µM) | relative viability (Entinostat + Trametinib; first compound 0.2 µM) | relative viability (Entinostat + Trametinib; first compound 0.6325 µM) | relative viability (Entinostat + Trametinib; first compound 2 µM) | relative viability ([1]; first compound 0.02 µM) | relative viability ([1]; first compound 0.06325 µM) | relative viability ([1]; first compound 0.2 µM) | relative viability ([1]; first compound 0.6325 µM) | relative viability ([1]; first compound 2 µM) | relative viability (SGI-1776 + Pictilisib; first compound 0.08 µM) | relative viability (SGI-1776 + Pictilisib; first compound 0.8 µM) | relative viability (SGI-1776 + Pictilisib; first compound 2.53 µM) | relative viability (SGI-1776 + Pictilisib; first compound 8 µM) | relative viability (SGI-1776 + Pemetrexed; first compound 0.08 µM) | relative viability (SGI-1776 + Pemetrexed; first compound 0.8 µM) | relative viability (SGI-1776 + Pemetrexed; first compound 2.53 µM) | relative viability (SGI-1776 + Pemetrexed; first compound 8 µM)
1 | NCI-H1666 | 0.817 | 0.883 | 0.763 | 0.611 | 0.572 | 0.757 | 0.74 | 0.729 | 0.804 | 0.755 | 0.568 | 0.403 | 0.404 | 0.313 | 0.895 | 0.917 | 0.893 | 0.789
2 | HARA | 0.903 | 0.983 | 0.696 | 0.647 | 0.48 | 0.845 | 0.727 | 1.09 | 0.764 | 0.75 | 0.445 | 0.373 | 0.306 | 0.243 | 0.191 | 0.231 | 0.259 | 0.259
3 | NCI-H1944 | 0.387 | 0.43 | 0.333 | 0.265 | 0.232 | 0.424 | 0.41 | 0.42 | 0.413 | 0.512 | 0.355 | 0.334 | 0.343 | 0.324 | 0.727 | 0.757 | 0.591 | 0.559
4 | NCI-H2405 | 0.647 | 0.722 | 0.651 | 0.608 | 0.542 | 0.856 | 0.862 | 0.874 | 0.891 | 0.659 | 0.478 | 0.507 | 0.309 | 0.257 | 1.13 | 1.1 | 0.949 | 0.857
5 | 201T | 0.746 | 0.72 | 0.684 | 0.716 | 0.545 | 0.854 | 0.879 | 0.837 | 0.923 | 0.458 | 0.7 | 0.718 | 0.687 | 0.6 | 0.325 | 0.339 | 0.348 | 0.301
6 | PC-3 [JPC-3] | 0.726 | 0.642 | 0.579 | 0.51 | 0.502 | 1.19 | 1.19 | – | 1.17 | 0.709 | 0.72 | 0.779 | 0.768 | 0.478 | 1.17 | 1.42 | 0.936 | 0.495
7 | NCI-H1734 | 0.707 | 0.711 | 0.759 | 0.6 | 0.477 | 0.645 | 0.646 | 0.611 | 0.564 | 0.496 | 0.468 | 0.472 | 0.396 | 0.332 | 0.412 | 0.371 | 0.399 | 0.377
8 | NCI-H1651 | 0.931 | 0.844 | 0.844 | 0.745 | 0.606 | 0.177 | 0.18 | 0.195 | 0.171 | 0.161 | 0.671 | 0.559 | 0.421 | 0.432 | 0.672 | 0.736 | 0.604 | 0.456
9 | NCI-H838 | 0.531 | 0.548 | 0.626 | 0.395 | 0.167 | 0.86 | 0.812 | 0.743 | 0.741 | 0.353 | 0.446 | 0.398 | 0.414 | 0.277 | 0.232 | 0.29 | 0.258 | 0.189
10 | NCI-H1915 | 0.314 | 0.311 | 0.289 | 0.246 | 0.229 | 0.215 | 0.273 | 0.245 | 0.266 | 0.269 | 0.934 | 0.979 | 0.964 | 0.838 | 0.481 | 0.463 | 0.497 | 0.47
11 | COR-L23 | 0.507 | 0.614 | 0.544 | 0.318 | 0.189 | 0.391 | 0.371 | 0.317 | 0.353 | 0.271 | 0.916 | 0.868 | 0.821 | 0.667 | 0.212 | 0.188 | 0.2 | 0.18
12 | ChaGo-K-1 | 0.948 | 0.933 | 0.897 | 0.785 | 0.64 | 0.435 | 0.402 | 0.401 | 0.409 | 0.331 | 0.699 | 0.844 | 0.49 | 0.415 | 0.269 | 0.267 | 0.287 | 0.242
13 | HOP-62 | 0.412 | 0.435 | 0.392 | 0.351 | 0.18 | 0.632 | 0.5 | 0.447 | 0.7 | 0.255 | 0.849 | 0.734 | 1.08 | 0.607 | 0.306 | 0.363 | 0.325 | 0.31
14 | NCI-H1975 | 0.373 | 0.32 | 0.313 | 0.223 | 0.169 | 0.772 | 0.865 | 1 | 0.86 | 0.381 | 0.382 | 0.311 | 0.246 | 0.203 | 0.29 | 0.288 | 0.289 | 0.273
15 | BEN | 1.18 | 1.04 | 0.79 | 0.63 | 0.441 | 0.935 | 1.17 | 1.23 | 1.09 | 0.819 | 0.736 | 0.643 | 0.504 | 0.396 | 0.806 | 0.811 | 0.712 | 0.615
16 | EMC-BAC-2 | 0.868 | 0.713 | 0.578 | 0.489 | 0.383 | 0.483 | 0.484 | 0.472 | 0.476 | 0.445 | 0.539 | 0.555 | 0.567 | 0.485 | 0.438 | 0.452 | 0.458 | 0.425
17 | NCI-H650 | 1.06 | 1 | 0.917 | 0.708 | 0.487 | 0.403 | 0.405 | 0.379 | 0.371 | 0.408 | 0.958 | 0.731 | 0.868 | 0.644 | 1.02 | 0.91 | 0.949 | 0.841
18 | LU99A | 0.599 | 0.615 | 0.504 | 0.471 | 0.378 | 0.264 | 0.27 | 0.226 | 0.262 | 0.222 | 0.29 | 0.339 | 0.309 | 0.28 | 0.176 | 0.218 | 0.178 | 0.189
